Patent publication US20260167715A1, “PD-1+CD38HICD8+ KILLER T CELLS AND USES THEREOF” (GEORGETOWN UNIVERSITY, priority 2022, published 2026)
Residues, ends and D or L forms follow the SMILES beside them. *: point of attachment. Cbz = O=C(OCc1ccccc1)*; CH2Cl = ClC*

Assays:
T^frat cells [1] = assay: Degranulation (CD107a) in T^frat cells cultured with rCD31 with or without PI3K or ERK1/2 inhibitors; assay type: cell-based, mouse; conditions: rCD31 with inhibitor (100 nM), 24 h
T^frat cells [2] = assay: Gzm B levels in T^frat cells after NAD repletion or SIRT1 activator; assay type: cell-based, mouse; conditions: NAD (1 mM) or SIRT1 activator (1 or 2 μM), 24 h
Description: (§1) PD1^+CD38^hi and Teff CD8 T cells were generated by our previously reported method^2. In brief, MACS purified (>90%) OT1-CD8 (CD45.1) T cells from mouse spleen were activated either with low-affinity OVA-V peptide or with high-affinity OVA peptide ([…]) in T cell medium supplemented with 30 international units (IU) of IL-2 for 48 hours followed by FACS purification of PD1^+CD38^hi and PD1^+CD38^lo T cells respectively. Various cell surface and intracellular markers as well as level of pro- and anti-inflammatory cytokines, and cytolytic molecules were analyzed by flow cytometry as explained in the next section. In some experiments, CD38 was KD using siRNA for 24 h prior to various marker analysis. Furthermore, in a few experiments, either NAD (1 mM) or SIRT1 activator (1 or 2 μM) were added to the Tfrat cells for 24 h and levels of Gzm B were measured in these cells and in Teff cells by flow cytometry. To determine the role of CD38:CD31 interaction and signaling in Gzm B degranulation, Tfrat cells were cultured with rCD31 (1 or 5 μg) with or without PI3K or ERK1/2 inhibitors (100 nM). After 24 h, degranulation of Gzm B in T^frat cells was measured by CD1071 staining and levels of various signaling molecules by flow cytometry.

[3] = system: target pMel-1 CD8 T cells; assay: Co-culture (in vitro cell killing) of PD1+CD38hi or Teff CD8 T cells with target pMel-1 CD8 T cells; annexin V, caspase3/7, live/dead staining; assay type: cell-based; conditions: co-incubation of T^frat and target cells with blocking antibody or inhibitor
Description: For the flow cytometry analysis of lymphocytes of mouse and human origin, 1-2×10^6 cells per sample were stained with the LIVE/DEAD fixable near-IR dead cell stain kit (Invitrogen; catalog no. L10119) followed by fixation and permeabilization. All surface and intracellular markers were stained at the same time in fix and per buffer as per manufacturer's recommendations. For IFN-7 and Gzm B staining, the BD Biosciences Cytofix/Cytoperm (catalog no. 51-2090KZ) and BD Biosciences Perm/Wash (catalog no. 51-2091KZ) buffer sets were used according to the manufacturer's instructions. In a few experiments, variously treated cells were processed for annexin V staining to check the extent of apoptosis. For this, collected cells were stained for annexin V in annexin binding buffer (ABB) (BD Biosciences) for 30 minutes at 4° C. […]
PD1^+CD38^hi and Teff CD8 T cells were co-cultured overnight with FACS-sorted Thy1.1 target pMel-1 CD8^+ T cells (killer to target cell ratio 1:1) that were activated with gp100 peptide (1 μM per 10^6 cells per mL). […] In addition to the annexin V staining, Gzm B levels in the pMel-1 target CD8 or CD4 T cells and […] levels in the Tfrat cells after their co-culture in the presence or absence of anti-CD38/CD31 were measured by flow cytometry. […] Viability of target cells was assessed by FACS analysis using fixable Live/Dead stain.

[4] = system: Zap70, PI3K, RAC, and ERK in T^frat cells; assay: Signaling molecules in T^frat cells incubated with rCD31 (Western blotting); assay type: cell-based, mouse; conditions: incubation with rCD31 (1 or 5 μg)
Description: as §1, with “After 24 h, degranulation of Gzm B in T^frat cells was measured by CD1071 staining and levels of various signaling molecules by flow cytometry.” left out

Question: For `O=C(Nc1ccc2[nH]nc(-c3ccncc3)c2c1)[C@@H]1CCN(CC(=O)N2CCN(c3ccc(-c4ncccn4)cc3)CC2)C1` [ERK inhibitor, SCH772984], which “degranulation of Gzm B resulting from CD38:CD31 engagement, measured by CD107a level” value (T^frat cells [1]) is on record?
Answer: The value was “inhibited”.

Question: `NC(=O)c1ccc[n+]([C@@H]2O[C@H](COP(=O)([O-])OP(=O)(O)OC[C@H]3O[C@@H](n4cnc5c(N)ncnc54)[C@H](O)[C@@H]3O)[C@@H](O)[C@H]2O)c1` [NAD] was tested. Which “expression of Gzm B in T^frat” value (T^frat cells [2]) did it give?
Answer: Its value is “decrease in the expression of Gzm B”.

Question: With `Cl.O=C(Nc1ccccc1-c1cn2c(CN3CCNCC3)csc2n1)c1cnc2ccccc2n1` [SRT1720 HCl] as the molecule, how does the “expression of Gzm B in T^frat” value (T^frat cells [2]) read?
Answer: The value was “decrease in the expression of Gzm B”.

Question: How did the “T^frat-mediated apoptosis in target pMel-1 CD8 T cells in presence of the agent (annexin V)” value [3] turn out when `C[C@H](NC(=O)OCc1ccccc1)C(=O)N[C@@H](C)C(=O)N[C@@H](CC(=O)O)C(=O)CCl` [Z-AAD-CMK] (Cbz-Ala-Ala-Asp-CH2Cl) was run?
Answer: Its value is “fully abrogated”.

B1: rCD31: recombinant CD31 protein (3628-PC-050, R&D) (protein)
chain: EENSFTINSIHMESLPSWEVMNGQQLTLECLVDISTTSKSRSQHRVLFYKDDAMVYNVTSREHTESYVIPQARVFHSGKYKCTVMLNNKEKTTIEYEVKVHGVSKPKVTLDKKEVTEGGVVTVNCSLQEEKPPIFFKIEKLEVGTKFVKRRIDKTSNENFVLMEFPIEAQDHVLVFRCQAGILSGFKLQESEPIRSEYVTVQESFSTPKFEIKPPGMIIEGDQLHIRCIVQVTHLVQEFTEIIIQKDKAIVATSKQSSEAVYSVMAMVEYSGHYTCKVESNRISKASSIMVNITELFPKPKLEFSSSRLDQGELLDLSCSVSGTPVANFTIQKEETVLSQYQNFSKIAEESDSGEYSCTAGIGKVVKRSGLVPIQVCEMLSKPSIFHDAKSEIIKGHAIGISCQSENGTAPITYHLMKAKSDFQTLEVTSNDPATFTDKPTRDMEYQCRADNCHSHPAVFSEILRVRVIAPVDEVVISILSSNEVQSGSEMVLRCSVKEGTSPITFQFYKEKEDRPFHQAVVNDTQAFWHNKQASKKQEGQYYCTASNRASSMRTSPRSSTLAVRVFLAPWKK
Question: B1 was tested. Which “expression of phosphorylated Zap70, PI3K, RAC, and ERK in T^frat cells” value [4] did it give?
Answer: The value was “increase in the expression of phosphorylated Zap70, PI3K, RAC, and ERK”.
